Laboratory results taken from ChEMBL document CHEMBL1152336, “Characterization of the tautomycetin biosynthetic gene cluster from Streptomyces griseochromogenes provides new insight into dialkylmaleic anhydride biosynthesis” (J Nat Prod, 2009).

How the values were obtained:
[1] = Selectivity ratio of IC50 for PP2A over IC50 for PP1
[2] = Inhibition of PP2A
[3] = Inhibition of PP1

Row | SMILES | Ratio IC50 [1] | IC50 [2] | IC50 [3]
1 | C=C/C(=C/C(=O)C[C@H](C)C[C@@H](C)CC[C@H](O)[C@H](C)C(=O)C[C@@H](O)[C@H](C)[C@@H](C)OC(=O)C[C@@H](C)C1=C(C)C(=O)OC1=O)CC [TAUTOMYCETIN] | 40 | – | –
2 | CO[C@H]([C@H](O)CC(=O)[C@@H](C)[C@@H](O)CC[C@@H](C)[C@@H]1O[C@]2(CC[C@@H](C)[C@H](CC[C@H](C)C(C)=O)O2)CC[C@@H]1C)[C@H](OC(=O)C[C@@H](O)C1=C(C)C(=O)OC1=O)C(C)C [TAUTOMYCIN] | – | 0.022 µM | 0.022 µM
